Test results from patent US9833454B2, “Difluoromethoxy compound with low bioactivation potential for the reduction of beta-amyloid production” (BRISTOL-MYERS SQUIBB COMPANY, priority 2014, dated 2017).
“And” between values parts separate entries of the source, which are not always exact repeats. Equal entries are not always repeated.

Target: CYP2D6 (Homo sapiens, UniProt P10635)
Assay: biochemical

Chain of CYP2D6 (P10635 whole entry): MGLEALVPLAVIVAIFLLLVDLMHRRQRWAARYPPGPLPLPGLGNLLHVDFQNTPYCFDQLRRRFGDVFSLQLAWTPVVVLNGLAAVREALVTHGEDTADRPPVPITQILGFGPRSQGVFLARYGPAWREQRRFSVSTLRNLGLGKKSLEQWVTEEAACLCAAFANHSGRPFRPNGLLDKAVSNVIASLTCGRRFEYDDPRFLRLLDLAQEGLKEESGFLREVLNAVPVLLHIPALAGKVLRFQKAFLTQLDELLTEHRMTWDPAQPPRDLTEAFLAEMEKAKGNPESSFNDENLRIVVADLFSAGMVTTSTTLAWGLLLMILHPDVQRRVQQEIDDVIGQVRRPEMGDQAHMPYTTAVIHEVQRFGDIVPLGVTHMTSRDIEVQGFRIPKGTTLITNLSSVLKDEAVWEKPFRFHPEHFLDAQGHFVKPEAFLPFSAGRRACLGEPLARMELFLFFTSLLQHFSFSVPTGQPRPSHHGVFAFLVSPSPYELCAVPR

IC50: 1320 nM and 440 nM
SMILES: COCC(=O)O[C@]1(CCN(C)CCCc2nc3ccccc3[nH]2)CCc2cc(F)ccc2[C@@H]1C(C)C [Mibefradil, reference compound]
